{
  "source": "patent US20230404985A1",
  "about": "“METHODS OF TREATING TUMORS AND CANCERS HAVING DYSREGULATED WNT SIGNALING PATHWAYS” (ICAHN SCHOOL OF MEDICINE AT MOUNT SINAI, priority 2020, published 2023)",
  "system": "MYC-CTNNB1 tumor organoids",
  "assay": "Drug toxicity (viability) assay in murine HCC tumor organoids",
  "format": "cell-based, mouse",
  "conditions": "screen in four tumor organoid models; 5 μM, viability after 3 days",
  "description": "Liver tumors were minced and digested in sterile digestion media (PBS, 0.125 mg/mL collagenase from Clostridium histolyticum, 0.125 mg/mL dispase II, and 0.1 mg/mL DNaseI) for two hours at 37° C. Tumor dissociate was strained through a 70 μm strainer and washed with basal media (Advanced DMEM/F-12, 1% glutamine, 1% penicillin/streptomycin, 10 mM HEPES). Cells were counted, washed, resuspended at 50,000 cells per 50 μL Matrigel (Corning), and plated in 24 well plates. […]\nFor assays in organoid lines, 96 well plates were first coated with a 50:50 solution of basal media:Matrigel (35 μL/well), which polymerized for 15 minutes at 37° C. […] Viability was measured three days post drug administration with either luminescence from CellTiter-Glo or absorbance at 560 and 590 nm from resazurin. Viability data was analyzed by normalizing individual drug-treated well values to DMSO-treated wells. […]",
  "data": [
    {"compound": "CNC(=O)c1cc(Oc2ccc(NC(=O)Nc3ccc(C(F)(F)C(F)(F)F)cc3)c(F)c2)ccn1", "note": "[WNTinib, 4-(3-fluoro-4-(3-(4-(perfluoroethyl)phenyl)ureido)phenoxy)-N-methylpicolinamide]", "values": [
      {"measurement": "activity in tumor organoid screen", "value": "potent and selective activity"}
    ]}
  ]
}
